Laboratory results reported in US20250114367A1, “METHOD OF TREATING HAIR LOSS DISORDERS” (Sun Pharmaceutical Industries, Inc., priority 2023, published 2025).

System: adult subjects with moderate to severe AA
Assay: Phase III trial: Severity of Alopecia Tool (SALT) score
Type: in vivo, human
Conditions: for percentages of participants (responders) stratified by duration of current AA episode: week 24
Description: The SALT score is calculated for a patient/subject by measuring the percentage of hair loss in each of the 4 areas of the scalp and adding the total to achieve a composite score (referred to herein as an absolute SALT score). Hair regrowth is reflected by a decrease in the SALT score.
Approximately 440 adult male and female subjects 18 to 65 years of age, inclusive, with moderate to severe AA participated in the study. Subjects with definitive diagnosis of AA, and at least 50% hair loss, as defined by a SALT score ≥50, who met all of the inclusion criteria and none of the exclusion criteria participated in the study.
The Screening Period lasted up to 28 days prior to initiation of study drug. […] Randomization was stratified by scalp hair loss into 1 of the following 2 categories: 1) partial scalp hair loss (SALT ≥50 and <95), 2) complete or near complete scalp hair loss (SALT ≥95).
Assessment of treatment response using SALT for efficacy occurred at 4, 8, 12, 16, 20 and 24 weeks.
The primary efficacy endpoint was the percentage of subjects achieving an absolute SALT score of ≤20.
Additional secondary efficacy endpoints included the following: • Relative change in SALT scores from baseline at Weeks 4, 8, 12, 16, 20, and 24. • Percentage of responders (defined as “much improved” or “very much improved”) using the Clinical Global Impression of Improvement (CGI-I) at Weeks 12, 16, 20, and 24. • Percentage of responders (defined as “much improved” or “very much improved”) using the Patient Global Impression of Improvement (PGI-I) at Weeks 12, 16, 20, and 24. • Change from baseline in the Clinical Global Impression of Severity (CGI-S) at Weeks 12, 16, 20, and 24. • Change from baseline in the Patient Global Impression of Severity (PGI-S) at Weeks 12, 16, 20, and 24. • Change from baseline on the Brigham Eyebrow Tool for Alopecia (BETA) score at Weeks 12 and 24. • Change from baseline on the Brigham Eyelash Tool for Alopecia (BELA) score at Weeks 12 and 24. • Percentage of subjects achieving at least a 75% relative reduction in SALT score from baseline at Weeks 12 and 24. • Percentage of subjects achieving at least a 90% relative reduction in SALT score from baseline at Weeks 12 and 24. • Percentage of responders (defined as “satisfied” or “very satisfied”) on the SPRO scale at Weeks 12, 16, and 20. • Change from baseline in the SPRO scale at Weeks 12, 16, 20, and 24. • Percentage of subjects achieving a ≥2-point change from baseline in the SPRO scale at Weeks 12, 16, 20, and 24. • Change from baseline on the individual items of the Hair Quality Patient Reported Outcome (QPRO) scale at Weeks 12, 16, 20, and 24. • Change from baseline in the depression scale of the Hospital Anxiety and Depression Scale (HADS) at Week 24. • Change from baseline in the anxiety scale of the HADS at Week 24. • Percentage of subjects achieving an absolute SALT score of ≤20 at Week 4. • Percentage of subjects achieving an absolute SALT score of ≤10 at Week 24
• Clinical presentation compatible with alopecia areata with a current episode lasting at least 6 months and not exceeding 10 years at the time of Screening. Total disease duration greater than 10 years is permitted. • At least 50% scalp hair loss, as defined by a Severity of Alopecia Tool (SALT) score ≥50, at Screening and Baseline. • Willing to comply with the study visits and requirements of the study protocol.
This will include but is not limited to: • a. Platelets ≤100×109/L or ≥600×109/L • b. Absolute neutrophil count ≤1.5×109/L • c.

In the case of `[2H]C1([2H])C([C@@H](CC#N)n2cc(-c3ncnc4[nH]ccc34)cn2)C([2H])([2H])C([2H])([2H])C1([2H])[2H]` [CTP-543, (R)-3-(4-(7H-pyrrolo[2,3-d]pyrimidin-4-yl)-1H-pyrazol-1-yl)-3-(cyclopentyl-2,2,3,3,4,4,5,5-d8) propanenitrile], the “percentage of subjects achieving an absolute SALT score of ≤20” value (from here on “percentage … of ≤20”) (Week 8, 12 mg BID) is reported as 2.4%, the “percentage … of ≤20” value (Week 12, 8 mg BID) is reported as 10.5% and the “percentage … of ≤20” value (Week 12, 12 mg BID) is reported as 12.3%. The “percentage … of ≤20” value (Week 16, 8 mg BID) was 20.2%, the “percentage … of ≤20” value (Week 16, 12 mg BID) was 21.1% and the “percentage … of ≤20” value (Week 20, 12 mg BID) was 28.8%. For the same compound, the “percentage … of ≤20” value (Week 24, 8 mg BID) was 33%, the “percentage … of ≤20” value (Week 24, 12 mg BID) was 38.3% and the “percentage of subjects with an absolute SALT score ≤10” value (Week 24, 12 mg BID) was 26.7%. For the same compound, the “subjects achieving SALT score ≤20” value (Week 24, complete or near-complete scalp hair loss, 8 mg BID, 31/156) was 20.9%, the “subjects achieving SALT score ≤20” value (Week 24, complete or near-complete scalp hair loss, 8 mg BID, 37/184) was 20.1% and the “subjects achieving SALT score ≤20” value (Week 24, complete or near-complete scalp hair loss, 12 mg BID, 19/79) was 26.0. For the same compound, the “subjects achieving SALT score ≤20” value (Week 24, complete or near-complete scalp hair loss, 12 mg BID, 33/112) was 29.5, the “subjects achieving SALT score ≤20” value (Week 24, partial scalp hair loss at baseline, 8 mg BID, 46/93) was 54.1% and the “subjects achieving SALT score ≤20” value (Week 24, partial scalp hair loss at baseline, 8 mg BID, 57/134) was 42.5%. For the same compound, the “subjects achieving SALT score ≤20” value (Week 24, partial scalp hair loss at baseline, 12 mg BID, 27/48) was 57.4%, the “subjects achieving SALT score ≤20” value (Week 24, partial scalp hair loss at baseline, 12 mg BID, 50/88) was 56.8% and the “hair regrowth vs placebo” value (two Phase 3 trials, THRIVE-AA1 and THRIVE-AA2) was “significant improvements in hair regrowth vs placebo”. For the same compound, the “percentage … of ≤20” value (week 8, 8 mg BID) was 2.9%, the “percentages of participants (responders) stratified by duration of current AA episode” value (from here on “percentages of participants”) (>4 years duration, 12 mg BID, 13/50) was 28.9% and the “percentages of participants” value (≤4 years duration, 8 mg BID, 57/157) was 38.3%. The “percentages of participants” value (≤4 years duration, 12 mg BID, 33/77) was 44.0%.
